Reference: ChEMBL document CHEMBL1909046, “DrugMatrix in vitro pharmacology data”

Assays:
[1] = target: Sigma non-opioid intracellular receptor 1 (Homo sapiens, UniProt Q99720); experiment: DRUGMATRIX: Sigma1 radioligand binding (ligand: [3H] Haloperidol); assay type: cell membranes, Jurkat, Membrane; details: jurkat; Not Active = under 50% inhibition at 10 µM
[2] = target: T1, Muscarinic acetylcholine receptor M2 (Homo sapiens, UniProt P08172); assay type: cell membranes, CHO-K1, Membrane; details: cho-k1; further: in other assays of this panel Not Active means under 50% inhibition at 10 µM
T1 sequence (P08172 whole entry): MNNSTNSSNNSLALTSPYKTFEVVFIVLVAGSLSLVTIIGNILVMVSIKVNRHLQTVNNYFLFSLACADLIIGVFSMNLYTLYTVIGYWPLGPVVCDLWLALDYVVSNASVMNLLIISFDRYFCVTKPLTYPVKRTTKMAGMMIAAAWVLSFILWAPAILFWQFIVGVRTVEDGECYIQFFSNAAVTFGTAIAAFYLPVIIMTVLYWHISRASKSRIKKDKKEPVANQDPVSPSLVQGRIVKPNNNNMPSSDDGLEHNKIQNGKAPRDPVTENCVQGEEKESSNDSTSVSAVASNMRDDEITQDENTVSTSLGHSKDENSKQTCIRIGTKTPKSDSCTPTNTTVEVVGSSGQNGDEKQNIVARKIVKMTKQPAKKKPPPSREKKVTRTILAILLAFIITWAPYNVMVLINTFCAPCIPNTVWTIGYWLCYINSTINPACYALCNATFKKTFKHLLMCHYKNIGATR

[3] = target: T2, 5-hydroxytryptamine receptor 1A (Rattus norvegicus, UniProt P19327); assay type: cell membranes, CHO-K1, Membrane; details: cho-k1; further: in other assays of this panel Not Active means under 50% inhibition at 10 µM
T2 sequence (P19327 whole entry): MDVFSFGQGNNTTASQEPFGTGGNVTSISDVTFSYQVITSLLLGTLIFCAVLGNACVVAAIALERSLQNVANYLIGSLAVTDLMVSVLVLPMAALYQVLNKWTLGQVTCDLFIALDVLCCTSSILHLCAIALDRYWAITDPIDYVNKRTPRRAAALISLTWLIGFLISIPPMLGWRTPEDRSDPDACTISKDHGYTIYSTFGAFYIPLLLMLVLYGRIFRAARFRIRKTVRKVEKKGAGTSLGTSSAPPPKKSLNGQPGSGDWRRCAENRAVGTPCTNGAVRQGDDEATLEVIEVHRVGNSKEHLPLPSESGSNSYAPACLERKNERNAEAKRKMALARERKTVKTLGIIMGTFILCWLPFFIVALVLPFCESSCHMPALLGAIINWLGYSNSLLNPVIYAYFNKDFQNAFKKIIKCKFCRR

[4] = target: T3, Neuropeptide Y receptor type 2 (Homo sapiens, UniProt P49146); assay type: cell membranes, Membrane; details: kan-ts; further: in other assays of this panel Not Active means under 50% inhibition at 10 µM
T3 sequence (P49146 whole entry): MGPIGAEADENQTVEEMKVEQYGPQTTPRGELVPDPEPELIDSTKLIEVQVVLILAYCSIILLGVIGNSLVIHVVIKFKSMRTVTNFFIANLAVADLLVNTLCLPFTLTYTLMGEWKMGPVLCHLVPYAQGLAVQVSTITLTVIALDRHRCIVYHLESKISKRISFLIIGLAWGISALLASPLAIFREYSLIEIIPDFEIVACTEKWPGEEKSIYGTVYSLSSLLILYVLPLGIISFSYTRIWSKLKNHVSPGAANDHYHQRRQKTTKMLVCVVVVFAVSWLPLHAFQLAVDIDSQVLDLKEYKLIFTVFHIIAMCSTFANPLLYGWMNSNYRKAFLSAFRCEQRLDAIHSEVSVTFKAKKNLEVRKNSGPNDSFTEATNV

[5] = target: T4, Nitric oxide synthase, inducible (Mus musculus, UniProt P29477); parameters: species or system Escherichia coli;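 further: inhibition of iNOS enzyme activity measured with L-arginine as substrate; in other assays of this panel Not Active means under 50% inhibition at 10 µM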
T4 sequence (P29477 whole entry): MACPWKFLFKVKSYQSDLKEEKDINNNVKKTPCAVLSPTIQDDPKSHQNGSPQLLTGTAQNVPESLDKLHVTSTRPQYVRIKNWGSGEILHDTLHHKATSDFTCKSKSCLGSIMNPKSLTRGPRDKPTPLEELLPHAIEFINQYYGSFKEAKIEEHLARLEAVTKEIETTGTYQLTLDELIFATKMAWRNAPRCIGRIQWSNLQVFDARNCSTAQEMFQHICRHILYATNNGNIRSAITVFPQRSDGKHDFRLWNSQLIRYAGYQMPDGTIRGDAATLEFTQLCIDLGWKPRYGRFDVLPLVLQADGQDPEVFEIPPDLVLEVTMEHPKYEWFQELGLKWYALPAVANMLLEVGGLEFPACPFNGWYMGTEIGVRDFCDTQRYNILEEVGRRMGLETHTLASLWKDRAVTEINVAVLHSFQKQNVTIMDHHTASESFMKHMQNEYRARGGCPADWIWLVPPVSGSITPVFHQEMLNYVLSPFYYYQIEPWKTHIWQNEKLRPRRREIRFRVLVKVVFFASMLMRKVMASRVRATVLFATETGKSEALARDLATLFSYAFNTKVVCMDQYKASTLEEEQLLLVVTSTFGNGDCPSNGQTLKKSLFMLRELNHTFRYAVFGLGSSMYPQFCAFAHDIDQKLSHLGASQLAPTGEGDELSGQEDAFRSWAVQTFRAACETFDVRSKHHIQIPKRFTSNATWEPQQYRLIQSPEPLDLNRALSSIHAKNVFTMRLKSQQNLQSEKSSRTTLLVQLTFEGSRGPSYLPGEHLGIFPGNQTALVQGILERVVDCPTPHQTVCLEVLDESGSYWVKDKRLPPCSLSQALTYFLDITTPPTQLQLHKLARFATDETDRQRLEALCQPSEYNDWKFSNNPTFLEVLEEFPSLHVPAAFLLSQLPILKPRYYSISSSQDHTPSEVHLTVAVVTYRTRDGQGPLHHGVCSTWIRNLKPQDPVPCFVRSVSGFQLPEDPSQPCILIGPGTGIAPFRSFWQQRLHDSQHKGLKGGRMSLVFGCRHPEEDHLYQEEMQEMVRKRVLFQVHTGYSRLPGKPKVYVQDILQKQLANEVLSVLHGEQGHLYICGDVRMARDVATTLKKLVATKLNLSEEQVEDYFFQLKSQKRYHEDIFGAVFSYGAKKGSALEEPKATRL

[6] = target: Mitogen-activated protein kinase 1 (Homo sapiens, UniProt P28482); experiment: DRUGMATRIX: Protein Serine/Threonine Kinase, ERK2 enzyme inhibition (substrate: Myelin Basic Protein); parameters: species or system Escherichia coli; details: Not Active = under 50% inhibition at 10 µM
Chain of Mitogen-activated protein kinase 1 (P28482 whole entry): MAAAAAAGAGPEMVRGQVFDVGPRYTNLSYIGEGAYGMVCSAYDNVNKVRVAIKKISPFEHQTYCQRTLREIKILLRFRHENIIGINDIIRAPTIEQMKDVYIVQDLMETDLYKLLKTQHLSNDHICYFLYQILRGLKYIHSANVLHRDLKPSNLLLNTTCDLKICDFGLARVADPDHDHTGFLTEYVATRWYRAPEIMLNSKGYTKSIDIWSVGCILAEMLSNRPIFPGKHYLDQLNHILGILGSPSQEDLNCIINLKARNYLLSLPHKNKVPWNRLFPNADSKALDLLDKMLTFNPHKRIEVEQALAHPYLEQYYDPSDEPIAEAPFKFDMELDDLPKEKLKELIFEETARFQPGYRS

Measured: IC50

Chain of Sigma non-opioid intracellular receptor 1 (Q99720 whole entry): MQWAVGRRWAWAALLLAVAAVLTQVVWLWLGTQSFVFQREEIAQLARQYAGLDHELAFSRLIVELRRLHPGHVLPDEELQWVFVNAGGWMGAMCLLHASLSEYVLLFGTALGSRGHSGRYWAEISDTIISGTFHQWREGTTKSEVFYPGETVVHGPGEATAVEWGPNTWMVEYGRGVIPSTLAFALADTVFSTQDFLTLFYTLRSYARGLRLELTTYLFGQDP

CC(C)C(=O)Nc1ccc([N+](=O)[O-])c(C(F)(F)F)c1 [FLUTAMIDE]
Not Active: [1] | [2] | [3] | [4] | [5] | [6]

N=C(N)NCCN1CCCCCCC1 [GUANETHIDINE]
Not Active: [1] | [2] | [3] | [4] | [5] | [6]

CC1(C)O[C@@H]2C[C@H]3[C@@H]4CCC5=CC(=O)CC[C@]5(C)[C@@]4(F)[C@@H](O)C[C@]3(C)[C@]2(C(=O)CCl)O1 [HALCINONIDE]
Not Active: [1] | [2] | [3] | [4] | [5] | [6]

O=c1[nH]c(=O)n([C@H]2C[C@H](O)[C@@H](CO)O2)cc1I [IDOXURIDINE]
Not Active: [1] | [2] | [3] | [4] | [5] | [6]

CC1Cc2ccccc2N1NC(=O)c1ccc(Cl)c(S(N)(=O)=O)c1 (centres undefined) [INDAPAMIDE]
Not Active: [1] | [2] | [3] | [4] | [5] | [6]

Nc1nc(N)nc(-c2cc(Cl)ccc2Cl)n1.O=C(O)/C=C\C(=O)O [IRSOGLADINE MALEATE]
Not Active: [1] | [2] | [3] | [4] | [5] | [6]

CCC(C)n1ncn(-c2ccc(N3CCN(c4ccc(OCC5COC(Cn6cncn6)(c6ccc(Cl)cc6Cl)O5)cc4)CC3)cc2)c1=O (centres undefined) [ITRACONAZOLE]
Not Active: [1] | [2] | [3] | [4] | [5] | [6]

CCCCN1CCCC[C@H]1C(=O)Nc1c(C)cccc1C [LEVOBUPIVACAINE]
Not Active: [1] | [2] | [3] | [4] | [5] | [6]

CCCCc1nc(Cl)c(CO)n1Cc1ccc(-c2ccccc2-c2nnn[nH]2)cc1 [LOSARTAN]
Not Active: [1] | [2] | [3] | [4] | [5] | [6]

Sc1ncnc2nc[nH]c12 [MERCAPTOPURINE ANHYDROUS]
Not Active: [1] | [2] | [3] | [4] | [5] | [6]

C[C@](N)(Cc1ccc(O)c(O)c1)C(=O)O [METHYLDOPA]
Not Active: [1] | [2] | [3] | [4] | [5] | [6]

C[C@]12CCC(=O)C=C1CC[C@@H]1[C@@H]2CC[C@@]2(C)[C@H]1CC[C@]2(C)O [METHYLTESTOSTERONE]
Not Active: [1] | [2] | [3] | [4] | [5] | [6]

Cc1ccccc1N1C(=O)c2cc(S(N)(=O)=O)c(Cl)cc2NC1C (centres undefined) [METOLAZONE]
Not Active: [1] | [2] | [3] | [4] | [5] | [6]

COCCc1ccc(OCC(O)CNC(C)C)cc1 (centres undefined) [METOPROLOL]
Not Active: [1] | [2] | [3] | [4] | [5] | [6]

CCn1cc(C(=O)O)c(=O)c2cc(F)c(N3CCNCC3)cc21 [NORFLOXACIN]
Not Active: [1] | [2] | [3] | [4] | [5] | [6]

NC1=NC(=O)C(c2ccccc2)O1 (centres undefined) [PEMOLINE]
Not Active: [1] | [2] | [3] | [4] | [5] | [6]

Nc1nc2c(ncn2CCC(CO)CO)c(=O)[nH]1 [PENCICLOVIR]
Not Active: [1] | [2] | [3] | [4] | [5] | [6]

C=C(C)C1(O)OC(=O)C=C1OC (centres undefined) [PENICILLIC ACID]
Not Active: [1] | [2] | [3] | [4] | [5] | [6]

CC1(C)S[C@@H]2[C@H](NC(=O)Cc3ccccc3)C(=O)N2[C@H]1C(=O)O [PENICILLIN G]
Not Active: [1] | [2] | [3] | [4] | [5] | [6]
